Assay results published in the NIST ThermoML archive (doi:10.1016/j.jct.2016.12.020).
± gives the expanded uncertainty stated by the source.

Experiment: excess molar enthalpy (molar enthalpy of mixing); xn = mol fraction of the nth substance listed
Conditions: 100 kPa, Liquid, Calvet calorimetry

[Au] [gold] + [Ga]
excess molar enthalpy [kcal/mol]
Conditions	1223 K	1323 K
x1 = 0.03042	-0.3007 ± 0.00263	–
x1 = 0.03979	–	-0.4015 ± 0.00335
x1 = 0.0642	-0.6272 ± 0.00502	–
x1 = 0.07894	–	-0.7875 ± 0.00621
x1 = 0.09685	-0.9732 ± 0.00765	–
x1 = 0.116	–	-1.149 ± 0.00908
x1 = 0.1281	-1.308 ± 0.0103	–
x1 = 0.1512	–	-1.492 ± 0.0117
x1 = 0.1606	-1.622 ± 0.0127	–
x1 = 0.1843	–	-1.794 ± 0.0141
x1 = 0.1915	-1.907 ± 0.0151	–
x1 = 0.2172	–	-2.085 ± 0.0163
x1 = 0.2205	-2.139 ± 0.0167	–
x1 = 0.2492	-2.37 ± 0.0186	-2.366 ± 0.0184
x1 = 0.2762	-2.589 ± 0.0203	–
x1 = 0.2785	–	-2.596 ± 0.0203
x1 = 0.3018	-2.787 ± 0.0217	–
x1 = 0.3074	–	-2.819 ± 0.022
x1 = 0.3274	-2.98 ± 0.0232	–
x1 = 0.3345	–	-3.014 ± 0.0234
x1 = 0.3516	-3.153 ± 0.0239	–
x1 = 0.3597	–	-3.179 ± 0.0239
x1 = 0.3741	-3.296 ± 0.0263	–
x1 = 0.3836	–	-3.319 ± 0.0263
x1 = 0.3958	-3.404 ± 0.0263	–
x1 = 0.4061	–	-3.431 ± 0.0287
x1 = 0.4164	-3.509 ± 0.0287	–
x1 = 0.4283	–	-3.53 ± 0.0287
x1 = 0.4363	-3.587 ± 0.0287	–
x1 = 0.449	–	-3.615 ± 0.0311
x1 = 0.4553	-3.665 ± 0.0311	–
x1 = 0.4692	–	-3.695 ± 0.0335
x1 = 0.4737	-3.733 ± 0.0311	–
x1 = 0.4871	-3.783 ± 0.0335	–
x1 = 0.4882	–	-3.752 ± 0.0359
x1 = 0.4991	–	-3.797 ± 0.0359
x1 = 0.5003	-3.814 ± 0.0335	–
x1 = 0.5096	–	-3.825 ± 0.0382
x1 = 0.5139	-3.826 ± 0.0359	–
x1 = 0.5203	–	-3.85 ± 0.0406
x1 = 0.527	-3.839 ± 0.0382	–
x1 = 0.5307	–	-3.87 ± 0.0406
x1 = 0.5395	-3.851 ± 0.0382	–
x1 = 0.5412	–	-3.88 ± 0.043
x1 = 0.5514	–	-3.89 ± 0.0454
x1 = 0.5515	-3.86 ± 0.0406	–
x1 = 0.5621	–	-3.89 ± 0.0454
x1 = 0.5631	-3.88 ± 0.0406	–
x1 = 0.5727	–	-3.9 ± 0.0478
x1 = 0.5743	-3.88 ± 0.043	–
x1 = 0.5829	–	-3.9 ± 0.0502
x1 = 0.585	-3.88 ± 0.0454	–
x1 = 0.5927	–	-3.89 ± 0.0526
x1 = 0.5953	-3.88 ± 0.0478	–
x1 = 0.6028	–	-3.88 ± 0.055
x1 = 0.6053	-3.88 ± 0.0478	–
x1 = 0.6129	–	-3.87 ± 0.055
x1 = 0.6147	-3.88 ± 0.0502	–
x1 = 0.6231	–	-3.84 ± 0.0574
x1 = 0.6239	-3.87 ± 0.0526	–
x1 = 0.6306	-3.86 ± 0.0526	–
x1 = 0.637	-3.85 ± 0.055	–
x1 = 0.6431	-3.83 ± 0.055	–

[Ag] [silver] + [Ga]
Conditions	excess molar enthalpy [kcal/mol]
1223 K, x1 = 0.04915	0.0514 ± 0.00717
1223 K, x1 = 0.0956	0.0619 ± 0.0129
1223 K, x1 = 0.1383	0.0729 ± 0.0186
1223 K, x1 = 0.1792	0.0681 ± 0.0239
1223 K, x1 = 0.2178	0.0629 ± 0.0287
1223 K, x1 = 0.2552	0.0301 ± 0.0335
1223 K, x1 = 0.2905	-0.00215
1223 K, x1 = 0.3228	-0.0502 ± 0.0406
1223 K, x1 = 0.3528	-0.0958 ± 0.043
1223 K, x1 = 0.3809	-0.14 ± 0.0454
1223 K, x1 = 0.4081	-0.193 ± 0.0502
1223 K, x1 = 0.4336	-0.252 ± 0.0526
1223 K, x1 = 0.4572	-0.308 ± 0.0526
1223 K, x1 = 0.4789	-0.346 ± 0.055
1223 K, x1 = 0.4992	-0.389 ± 0.0574
1223 K, x1 = 0.5189	-0.447 ± 0.0598
1223 K, x1 = 0.5372	-0.494 ± 0.0621
1223 K, x1 = 0.5548	-0.535 ± 0.0645
1223 K, x1 = 0.5712	-0.574 ± 0.0645
1323 K, x1 = 0.05283	0.0533 ± 0.00765
1323 K, x1 = 0.1006	0.0992 ± 0.0143
1323 K, x1 = 0.1464	0.112 ± 0.0206
1323 K, x1 = 0.1894	0.107 ± 0.0263
1323 K, x1 = 0.2288	0.0978 ± 0.0311
1323 K, x1 = 0.2649	0.0846 ± 0.0359
1323 K, x1 = 0.2996	0.0519 ± 0.0406
1323 K, x1 = 0.3321	0.00598 ± 0.043
1323 K, x1 = 0.3634	-0.0519 ± 0.0478
1323 K, x1 = 0.3921	-0.0949 ± 0.0502
1323 K, x1 = 0.4189	-0.144 ± 0.0526
1323 K, x1 = 0.4443	-0.198 ± 0.055
1323 K, x1 = 0.4687	-0.227 ± 0.0574
1323 K, x1 = 0.4964	-0.274 ± 0.0621
1323 K, x1 = 0.5168	-0.312 ± 0.0621
1323 K, x1 = 0.5359	-0.344 ± 0.0645
1323 K, x1 = 0.5558	-0.386 ± 0.0669
